Source: PMC4148174 (Biochemical Journal, 2014)
Read-outs that look alike come from different tables or passages of the source.

Legend:
complex I [1] = assay: NADH:decylubiquinone oxidoreduction by isolated complex I from bacterium; assay type: biochemical, Escherichia coli; conditions: read-out: IC50, inhibition of complex I; complex I from the bacterium E. coli
Experimental: (§1) Complex I was prepared from Bos taurus (bovine) heart mitochondria, Pichia pastoris and Escherichia coli, as described previously. SMPs (submitochondrial particles) and mitochondrial membranes were prepared from bovine heart mitochondria. Complex IV was a by-product from the preparation of complex I; it elutes from the Q-Sepharose column at ~250 mM NaCl. Mitochondria were isolated from rat liver by the method of Chappell and Hansford. F1FO-ATP synthase and the F1 domain were isolated from bovine mitochondria as described previously using a HiLoad Superdex 200-PG column and omitting azide and 2-mercaptoethanol.
(§2) NADH:decylubiquinone oxidoreduction was measured using 200 μM NADH and 200 μM decylubiquinone, in 0.075% soya bean asolectin (Avanti Polar Lipids) and 0.075% CHAPS (Merck Chemicals) and quantified by the absorbance of NADH (ε340–380=4.81 mM^−1·cm^−1). Catalysis was initiated by the addition of NADH, following a 2 min pre-incubation, and rates measured as the linear regression of the maximal rate (discarding any initial lag phases). […] Initial rates for the NADH:FeCN (ferricyanide), NADH:HAR [hexaammineruthenium(III)] and NADH:paraquat reactions were measured in 100 μM NADH with 1 mM FeCN (ε420–500=1 mM^−1·cm^−1), 3.5 mM HAR or 200 μM paraquat (ε340–380=4.81 mM^−1·cm^−1). […]

[2] = test system: immunoprecipitated complex I; design: method as in PMID 18817800; conditions: previous data; cited from earlier work
[3] = test system: T1, complex I (NADH:ubiquinone oxidoreductase); assay: NADH:decylubiquinone oxidoreduction by isolated complex I; assay type: biochemical, Bos taurus (bovine); conditions: for inhibition of complex I catalysis at extrapolated mitochondrial concentration: 10 mM metformin, 200 μM phenformin in mitochondria; for IC50: isolated bovine complex I, 32°C, pH 7.2, 200 μM NADH, 200 μM decylubiquinone, 95% confidence intervals
T1 construct: from tissue; host or cells: bovine heart mitochondria
Experimental: Catalysis was initiated by the addition of NADH, following a 2 min pre-incubation, and rates measured as the linear regression of the maximal rate (discarding any initial lag phases). […] Control experiments included NaCl (to maintain the ionic strength) or DMSO.
Experimental values are reported as means±S.E.M. for small sample sizes or as means±S.D. for large sample sizes with only technical error sources. […] Comparisons between samples are marked *P<0.05, **P<0.01 and ****P<0.0001 as determined using an unpaired two-tailed Students t test. Differences between measurements with P>0.05 were considered not significant.

[4] = test system: isolated rat skeletal muscle mitochondria; assay: H2O2 production by isolated rat skeletal muscle mitochondria (resorufin fluorescence); conditions: glutamate and pyruvate, ATP and rotenone
Text: . However, these extramitochondrial concentrations are very high and we are unable to control the intramitochondrial concentration or conditions, so the results are not quantitatively meaningful. […]

ATP synthase = test system: T2, ATP synthase; assay: Succinate-driven ATP synthesis by SMPs; assay type: biochemical, bovine; conditions: 15 mM buformin, 100 mM metformin; others up to concentrations above IC50 for ATP hydrolysis; corrected for succinate oxidation
T2 construct: from tissue; host or cells: SMPs from bovine heart mitochondria
Text: Data points are means±S.E.M., n=3, as a percentage of ATP production in the absence of biguanide. […] (●).

[5] = test system: Hep G2 hepatocarcinoma cells; assay: Rotenone-sensitive OCR and ECAR of Hep G2 cells (Seahorse); assay type: cell-based, human; conditions: for IC50: Hep G2 cells, 6 h exposure, read-out: cellular IC50, rotenone-sensitive OCR; for effect on rotenone-sensitive OCR or ECAR: concentration equal to complex I IC50/10, 6 h of treatment
Experimental: OCRs (oxygen consumption rates) and ECARs (extracellular acidification rates) were measured in a Seahorse extracellular flux analyser; 200 nM rotenone was used to inhibit complex I where stated. To calculate the normalized rotenone-sensitive OCR rates, the rotenone-insensitive rates (determined at the end of the experiment) were subtracted and the traces normalized to 100% before biguanide addition. ECAR data were normalized to 100% before biguanide addition. […] Isolated rat liver mitochondria were plated at 20 μg per well in the same buffer but without PMP. They were adhered to the plate by centrifugation at 2000 g for 20 min at 4°C and measurements performed and normalized (after temperature equilibration) as for permeabilized cells but at 32°C.
(§3) Biguanides are positively charged so they are expected to accumulate in the mitochondria of cells in response to the potential difference across the inner membrane (the potential difference is the ‘charge’ component of the protonmotive force). Each 60 mV of potential difference drives the concentration of the positive ion to 10-times higher inside the mitochondrion than outside. For a typical potential difference of 120–150 mV the concentration inside the mitochondrion could therefore be 100 to 300-times higher than outside. […] The OCRs were normalized to their values before biguanide addition, and monitored throughout the experiment; rotenone-insensitive rates were subtracted, and all rates after 6 h compared with a biguanide-free control.

complex I flavin = test system: T3, complex I flavin; assay: H2O2 production (NADH:O2 oxidoreduction) by isolated complex I; assay type: biochemical, bovine; conditions: dose-response
T3 construct: from tissue; host or cells: bovine heart mitochondria (from context)
Experimental: (§4) NADH:decylubiquinone oxidoreduction was measured using 200 μM NADH and 200 μM decylubiquinone, in 0.075% soya bean asolectin (Avanti Polar Lipids) and 0.075% CHAPS (Merck Chemicals) and quantified by the absorbance of NADH (ε340–380=4.81 mM^−1·cm^−1). Catalysis was initiated by the addition of NADH, following a 2 min pre-incubation, and rates measured as the linear regression of the maximal rate (discarding any initial lag phases). […] Initial rates for the NADH:FeCN (ferricyanide), NADH:HAR [hexaammineruthenium(III)] and NADH:paraquat reactions were measured in 100 μM NADH with 1 mM FeCN (ε420–500=1 mM^−1·cm^−1), 3.5 mM HAR or 200 μM paraquat (ε340–380=4.81 mM^−1·cm^−1). H2O2 formation was followed in 30 μM NADH as the catalase-sensitive horseradish peroxidase-dependent oxidation of 10 μM Amplex Red to resorufin (ε557–620=51.6 mM^−1·cm^−1), with 2 units/ml superoxide dismutase, or by monitoring NADH oxidation. Metformin (Cambridge Bioscience) phenformin and buformin (Santa Cruz Biotechnology) were added from aqueous stock solutions, and cycloguanil (Santa Cruz Biotechnology) and proguanil (Sigma–Aldrich) were in DMSO. Control experiments included NaCl (to maintain the ionic strength) or DMSO.

complex I flavin site = test system: T4, complex I flavin site; assay: NADH-dependence of NADH:FeCN catalysis by isolated bovine complex I; assay type: biochemical; conditions: 100 mM metformin
T4 construct: from tissue; host or cells: bovine heart mitochondria

[6] = Typical blood serum levels; assay type: in vivo; conditions: 1000-fold accumulation at combined membrane potentials of 180 mV
complex I [7] = assay: NADH:decylubiquinone oxidoreduction by isolated complex I from yeast; assay type: biochemical, Pichia pastoris; conditions: complex I from the yeast P. pastoris; read-out: IC50, inhibition of complex I
Experimental: as §1, §2

complex I [8] = assay: NADH:FeCN oxidoreduction by complex I from P. pastoris; assay type: biochemical, Pichia pastoris; conditions: 200 mM metformin
Experimental: as §4

complex I [9] = assay: NADH:FeCN oxidoreduction by complex I from E. coli; assay type: biochemical, Escherichia coli; conditions: 200 mM metformin
Experimental: as §4

complex I in SMPs = test system: T5, complex I in SMPs; assay: NADH oxidation by SMPs; assay type: biochemical, bovine; conditions: 100 mM metformin added 10 min after initiation by 200 μM NADH
T5 construct: from tissue; host or cells: SMPs from bovine heart mitochondria

[10] = design: method as in PMID 12889529; conditions: cited from earlier work
143B osteosarcoma cells = assay: Rotenone-sensitive OCR of 143B cells (Seahorse); assay type: cell-based, human; conditions: 6 h exposure, read-out: cellular IC50, rotenone-sensitive OCR
Experimental: Cells [143B (cell line 8303 from the A.T.C.C.) and Hep G2 (cell line 85011430 from The Health Protection Agency)] were grown on DMEM (Dulbecco's modified Eagle's medium) supplemented with 10% FBS (Thermo Fisher Scientific) and 100 units/ml penicillin and 100 μg/ml streptomycin at 37°C in 5% CO2. Per well, 3×10^4 or 1.5×10^4 cells were plated into XF24 or XF96 (Seahorse Bioscience) plates respectively, and incubated for 12 h at 37°C in 5% CO2. The medium was exchanged for assay buffer containing DMEM, 4.5 g/l glucose, 1 mM pyruvate, 32 mM NaCl, 2 mM GlutaMAX, 15 mg/l Phenol Red and 20 mM Hepes (pH 7.4) and the cells placed in a CO2-free incubator at 37°C for 60 min. OCRs (oxygen consumption rates) and ECARs (extracellular acidification rates) were measured in a Seahorse extracellular flux analyser; 200 nM rotenone was used to inhibit complex I where stated. To calculate the normalized rotenone-sensitive OCR rates, the rotenone-insensitive rates (determined at the end of the experiment) were subtracted and the traces normalized to 100% before biguanide addition. ECAR data were normalized to 100% before biguanide addition. For the permeabilized cell experiments, cells were seeded at 3.5×10^3 per well and incubated for 62 h at 37°C in 5% CO2. The medium was exchanged for assay buffer containing 3 nM plasma membrane permeabilizer ‘PMP’ (Seahorse Biosciences), 10 mM pyruvate, 10 mM malate, 220 mM mannitol, 70 mM sucrose, 10 mM KH2PO4, 5 mM MgCl, 1 mM EGTA, 0.2% fatty-acid-free BSA and 2 mM Hepes (pH 7.4) at 37°C. Cells were incubated for 15 min and a baseline was recorded for normalization, then the test compounds were added. […]
Biguanides are positively charged so they are expected to accumulate in the mitochondria of cells in response to the potential difference across the inner membrane (the potential difference is the ‘charge’ component of the protonmotive force). […] The OCRs were normalized to their values before biguanide addition, and monitored throughout the experiment; rotenone-insensitive rates were subtracted, and all rates after 6 h compared with a biguanide-free control. […]

[11] = test system: T6, isolated F1 domain of ATPase; assay: ATP hydrolysis by the isolated F1 domain; assay type: biochemical, bovine; conditions: at the SMP IC50 values
T6 construct: from tissue; host or cells: bovine mitochondria
Experimental: as §1, with “Complex IV was a by-product from the preparation of complex I; it elutes from the Q-Sepharose column at ~250 mM NaCl.” left out

143B and Hep G2 cells = assay: Accumulation into mitochondria of cultured cells inferred from complex I inhibition; assay type: cell-based, human; conditions: 6 h
Text: as §3, with “control. […]. […] […].” for “control.”

complex III = assay: Complex III inhibition (succinate:cytochrome c oxidoreduction); conditions: read-out: IC50 on complex III
F1FO-ATPase = target: T7, F1FO-ATPase; assay: ATP hydrolysis by F1FO-ATPase in SMPs (coupled assay); assay type: biochemical; conditions: bovine SMPs
T7 construct: from tissue; host or cells: SMPs from bovine heart mitochondria

[12] = target: T8, isolated ATPase (F1FO-ATP synthase); assay: ATP hydrolysis by isolated intact ATPase; assay type: biochemical, bovine; conditions: isolated intact enzyme
T8 construct: from tissue; host or cells: bovine mitochondria
Experimental: as §1

SMILES	inhibition of complex I catalysis at extrapolated mitochondrial concentration [3]	IC50 [3] [µM]	effect on succinate-driven ATP synthesis (ATP synthase)	H2O2 production rate maximum (complex I flavin) [%]	mitochondrial concentration extrapolated from serum [6] [mM]	serum concentration [10]	IC50 (143B osteosarcoma cells; Homo sapiens, 143B, 6 h) [µM]	inhibition of ATP hydrolysis by the isolated F1 domain [11]	effect on rotenone-sensitive OCR or ECAR [5]	other results
CN(C)C(=N)N=C(N)N [metformin]	~ 25%	19400 ± 1400	No inhibition	338±41	10	~ 10 μM	237 ± 13			IC50 (complex I [1]): 60700 ± 8500 µM; IC50 [2]: 66000 µM; mode of inhibition of complex I ([3]; Michaelis-Menten analysis towards decylubiquinone): reversible non-competitive inhibitor; stimulation of H2O2 production rate ([4]; 50 mM metformin): 270±34%; stimulation of H2O2 production rate ([4]; 100 mM metformin): 360±35%; IC50 [5]: 330 ± 20 µM; IC50 ([5]; Homo sapiens, HepG2, 6 h): 325 ± 25 µM; increase of the dissociation constant for NADH to the reduced flavin (complex I flavin site): ~ 20 times; KNADHRed (dissociation constant for NADH binding to the reduced flavin) (complex I flavin site; control 11 μM, data fit): 181 µM; IC50 (complex I [7]): 22600 ± 4300 µM; NADH:FeCN reaction rate (stimulation) (complex I [8]): 166±1%; NADH:FeCN reaction rate (stimulation) (complex I [9]): 144±2%; time for inhibition to attain the same level when added during catalysis (complex I in SMPs): more than 30 min; IC50 (143B osteosarcoma cells): 240 ± 10 µM
[H]/N=C(/N)N/C(=N/[H])NCCc1ccccc1 [phenformin]	~ 25%		inhibition of synthesis is observed at higher concentrations		0.2	~ 200 nM	3.81 ± 1.12	32±7.5%		IC50 ([5]; Homo sapiens, HepG2): 3.8 ± 0.38 µM; time for uptake to reach completion ([5]; concentration equal to complex I IC50/10 (0.04 mM phenformin)): approximately 6 h; accumulation (isolated complex I IC50 versus cellular IC50) (143B and Hep G2 cells): 120 fold
CC1(C)N=C(N)N=C(N)N1c1ccc(Cl)cc1 [cycloguanil]			neither cycloguanil or proguanil affect ATP synthesis					no significant inhibition	neither proguanil nor cycloguanil exhibited any substantial effect	IC50 (complex III): 2480 ± 210 µM
[H]/N=C(\N/C(=N/[H])Nc1ccc(Cl)cc1)NC(C)C [proguanil]			neither cycloguanil or proguanil affect ATP synthesis					no significant inhibition	neither proguanil nor cycloguanil exhibited any substantial effect	IC50 (F1FO-ATPase): 6.8 ± 0.7 µM; IC50 [12]: 0.67 ± 0.1 µM
CCCCNC(=N)NC(=N)N [buformin]			No inhibition					74±3%		
N=C(N)N [guanidinium]		25800 ± 3900		386±34						
